Assay results from patent US6156316A, “Oncogene fusion protein peptide vaccines” (Sloan-Kettering Institute for Cancer Research, priority 1995, dated 2000).
Read-outs that look alike come from different tables or passages of the source. No end group written: not given here.

Tests used:
HLA A2.1 = target: T1, HLA A2.1 (Homo sapiens, UniProt P04439, D140Y/D185E/D98H/E176V/E277Q/G131W/G231S/I119V/I121R/I166T/I218V/L300P/L318F/N151K/N90K/P208A/P217A/Q86G/Q94H/R138H/R169H/T345S); assay: biochemical; format: binding
T1 construct: endogenous in cells
From the text: (§1) Purification of HLA class I molecules.

HLA A3.2 = target: T2, HLA A3.2 (Homo sapiens, UniProt P04439); assay: biochemical; format: binding
T2 construct: endogenous in cells
T2 sequence (P61769 21-119): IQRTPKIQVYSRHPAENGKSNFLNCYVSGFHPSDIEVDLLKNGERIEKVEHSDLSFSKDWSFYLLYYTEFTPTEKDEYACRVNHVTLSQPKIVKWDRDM
T2 sequence (P04439 25-365): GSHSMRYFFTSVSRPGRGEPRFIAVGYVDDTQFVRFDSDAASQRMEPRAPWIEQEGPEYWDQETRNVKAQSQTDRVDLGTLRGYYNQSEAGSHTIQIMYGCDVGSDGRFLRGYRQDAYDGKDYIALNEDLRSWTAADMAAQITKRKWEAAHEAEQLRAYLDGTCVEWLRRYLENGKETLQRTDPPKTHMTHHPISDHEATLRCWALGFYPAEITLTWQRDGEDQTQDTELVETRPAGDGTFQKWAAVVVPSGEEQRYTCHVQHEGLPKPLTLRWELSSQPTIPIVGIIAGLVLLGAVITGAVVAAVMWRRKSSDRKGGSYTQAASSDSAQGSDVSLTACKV
From the text: as §1

HLA B7 = HLA B7 (Homo sapiens, UniProt P01889); assay: biochemical
Sequence of HLA B7 (P01889 25-362): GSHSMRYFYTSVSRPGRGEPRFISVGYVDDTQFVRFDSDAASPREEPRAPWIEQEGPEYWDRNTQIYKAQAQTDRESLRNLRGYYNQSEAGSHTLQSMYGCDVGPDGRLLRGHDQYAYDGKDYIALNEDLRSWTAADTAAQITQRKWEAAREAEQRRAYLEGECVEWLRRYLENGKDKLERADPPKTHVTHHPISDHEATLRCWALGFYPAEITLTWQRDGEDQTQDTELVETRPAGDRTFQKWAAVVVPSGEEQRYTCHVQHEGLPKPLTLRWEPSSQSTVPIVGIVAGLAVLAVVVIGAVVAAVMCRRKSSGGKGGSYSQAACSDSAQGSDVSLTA
Sequence of HLA B7 (P61769 21-119, further chain): as the sequence (P61769 21-119) above
Procedure: Standard peptides known to bind efficiently to HLA A1, A2.1, A3.2, A11, A24, B7, B8, B27 were synthesized and ^125 I-labeled by Cytel, San Diego, Calif. as described (14,15).
MHC binding assay. Peptide binding to purified MHC class I molecules was measured as described (14,15). Briefly, the assay is based on the inhibition of binding of the radiolabeled standard peptide described above to detergent solubilized purified MHC molecules. HLA concentrations (about 10 nM) yielding 15% bound standard peptide were used in the inhibition assay. A serial dilution of CML or APL breakpoint spanning peptide (30 uM to 1 nM) were incubated together with 5 Mn of the radiolabeled standard peptide and matched appropriate HLA molecule. The percent MHC-bound radioactivity was then determined by gel filtration, and the inhibition calculated.

FeLV subunit vaccine = details: cats; cited from earlier work
[1] = tested on: HIV-1 recombinant vaccine; details: Rhesus monkeys; cited from earlier work
[2] = AFFINITY (nM) A3.2, Table 1, CML peptides, 50% inhibition of standard peptide binding
[3] = concentration for 50% inhibition, HLA A3.2, text b187

Compound | IC50 (HLA A2.1) | IC50 (HLA A3.2; [2]) | also measured
CC[C@H](C)[C@H](NC(=O)[C@@H](NC(=O)[C@@H](N)CC(C)C)[C@@H](C)O)C(=O)N[C@@H](CC(N)=O)C(=O)N[C@@H](CCCCN)C(=O)N[C@@H](CCC(=O)O)C(=O)N[C@@H](CCC(=O)O)C(=O)N[C@@H](C)C(=O)N[C@@H](CC(C)C)C(=O)O [LTINKEEAL] | > 30 µM |  | 
ATGFKQSSK |  | 300 nM | IC50 (HLA A3.2; [3]): 100 to 500 nM
ATGFKQSSKAL [ATGFKQSSKAL] | > 30 µM |  | 
CITQGKAI | > 50 µM |  | 
DLSSCITQGKA | > 50 µM |  | 
FKQSSKALQR |  | 545 nM | 
GFKQSSKALQR |  | 810 nM | 
HSATGFKQSSK |  | 400 nM | IC50 (HLA A3.2; [3]): 400 nM
HVASGAGEAAI | > 50 µM |  | 
IPLTINKEEAL [IPLTINKEEAL] |  |  | IC50 (HLA B7): > 30 µM
KQSSKALQR |  |  | IC50 (HLA A3.2): 43 nM
LTINKEEALQR |  |  | IC50 (HLA A3.2): > 30000 nM
PLTINKEEA | > 30 µM |  | 
PLTINKEEAL [PLTINKEEAL] | > 30 µM |  | 
QS-21 |  |  | augmenting the immunogenicity of an FeLV subunit vaccine (FeLV subunit vaccine): highly effective; augmenting the immunogenicity of an HIV-1 recombinant vaccine [1]: highly effective
QSSKALQR |  |  | IC50 (HLA A3.2): > 30000 nM
SATGFKQSSK |  | 5450 nM | 
TGFKQSSK |  | > 30000 nM | 
TINKEEAL [TINKEEAL] | > 30 µM |  | 
TINKEEALQR |  | > 30000 nM | 
VASGAGEAAI | > 50 µM |  | 
